Measured values reported in patent US8686050B2, “Diglycidic ether derivative therapeutics and methods for their use” (British Columbia Cancer Agency Branch, priority 2008, dated 2014).
“Also recorded” adds a separate entry of the source. Counter-ions that a name gives are not always drawn.

What was measured:
[1] = biological target: T1, Gal4 DBD-AR1-558 (AR NTD) (Homo sapiens, UniProt P10275); test: Transactivation of the AR NTD (Gal4 DBD-AR1-558 with 5xGal4UAS-luciferase) in LNCaP cells; format: cell-based; settings: LNCaP cells, 185-9-2 5 ug/ml=12 μM, bicalutamide 10 μM
T1 construct: cloning amino acids 1-558 of the human AR NTD into the C-terminus of Gal4 DBD; expressed in transfected cells; host or cells: LNCaP
T1 sequence (P10275 1-558): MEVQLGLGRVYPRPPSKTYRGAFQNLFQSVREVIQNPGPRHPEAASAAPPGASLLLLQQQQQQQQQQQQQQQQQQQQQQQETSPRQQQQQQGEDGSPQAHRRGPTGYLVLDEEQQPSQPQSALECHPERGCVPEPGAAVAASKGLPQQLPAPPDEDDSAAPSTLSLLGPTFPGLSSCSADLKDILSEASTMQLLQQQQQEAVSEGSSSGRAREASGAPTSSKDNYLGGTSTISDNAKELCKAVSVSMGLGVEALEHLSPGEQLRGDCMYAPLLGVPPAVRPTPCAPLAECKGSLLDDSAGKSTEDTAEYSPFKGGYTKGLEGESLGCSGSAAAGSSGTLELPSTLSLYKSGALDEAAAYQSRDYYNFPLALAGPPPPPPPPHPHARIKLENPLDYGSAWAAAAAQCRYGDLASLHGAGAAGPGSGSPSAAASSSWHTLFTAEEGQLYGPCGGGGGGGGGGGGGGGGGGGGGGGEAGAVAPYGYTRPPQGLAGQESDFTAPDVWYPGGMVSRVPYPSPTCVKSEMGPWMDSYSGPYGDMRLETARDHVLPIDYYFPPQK
From the text: These fractions were next tested for their ability to inhibit the AR NTD. […] Extracts identified above were screened by such assays as well as some compounds purchased from commercial suppliers.
Expression vectors for these chimeric proteins were cotransfected into LNCaP cells with a reporter gene containing the Gal4-binding site as cis-acting elements (p5×Gal4UAS-TATA-luciferase).

[2] = biological target: T2, AR interaction with the ARE on the PSA enhancer (Homo sapiens, UniProt P10275, T878A); test: ChIP of AR on the PSA enhancer ARE in LNCaP cells; format: cell-based; settings: DHT 3 h or 16 h, 185-9-2 10 μg/ml
T2 construct: LNCaP cells express endogenous AR and secrete prostate-specific antigen (PSA); endogenous in cells; host or cells: LNCaP
T2 sequence (P10275 1-920 T878A): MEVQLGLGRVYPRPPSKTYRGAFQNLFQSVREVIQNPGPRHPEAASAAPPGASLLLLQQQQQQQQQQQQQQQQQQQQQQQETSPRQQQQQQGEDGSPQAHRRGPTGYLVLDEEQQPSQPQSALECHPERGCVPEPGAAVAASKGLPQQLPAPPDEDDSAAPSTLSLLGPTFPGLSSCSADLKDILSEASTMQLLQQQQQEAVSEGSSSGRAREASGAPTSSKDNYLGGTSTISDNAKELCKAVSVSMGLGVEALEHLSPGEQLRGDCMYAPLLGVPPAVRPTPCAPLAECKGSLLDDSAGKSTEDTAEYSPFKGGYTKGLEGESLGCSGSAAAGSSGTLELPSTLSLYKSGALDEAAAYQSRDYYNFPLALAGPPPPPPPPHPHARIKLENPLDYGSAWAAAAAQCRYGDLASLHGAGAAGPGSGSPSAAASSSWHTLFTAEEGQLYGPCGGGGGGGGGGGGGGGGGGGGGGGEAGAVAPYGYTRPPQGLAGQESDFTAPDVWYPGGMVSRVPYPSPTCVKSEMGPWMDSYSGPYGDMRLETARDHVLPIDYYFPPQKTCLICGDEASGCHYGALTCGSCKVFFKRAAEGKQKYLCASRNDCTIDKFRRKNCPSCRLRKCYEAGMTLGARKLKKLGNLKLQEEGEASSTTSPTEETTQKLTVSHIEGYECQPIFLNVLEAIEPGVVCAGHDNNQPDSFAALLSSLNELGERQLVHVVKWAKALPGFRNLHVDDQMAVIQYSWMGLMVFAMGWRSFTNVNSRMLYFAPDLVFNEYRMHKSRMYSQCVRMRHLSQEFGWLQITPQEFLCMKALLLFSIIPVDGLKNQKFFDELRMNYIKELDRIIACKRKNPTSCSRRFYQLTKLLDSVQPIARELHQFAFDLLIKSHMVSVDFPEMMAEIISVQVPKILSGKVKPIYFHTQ

[3] = test system: VEGF; test: VEGF staining of harvested LNCaP xenografts; format: in vivo, mice; settings: harvested at day 25 from castrated hosts
From the text: Angiogenesis in prostate cancer is predominantly dependent upon vascular endothelial growth factor (VEGF). Testosterone is a potent inducer of VEGF in the prostate (Häggström et al 1999 J Urol. 161, 1620-1625) and re-expression of VEGF in androgen independent tumours is consistent with the re-expression of androgen-regulated genes (Gregory et al 1998 Cancer Res. 58, 5718-5724). Expression of VEGF is associated with androgen independence (Mitsiades et al 2001 Expert Opin Investig Drugs. 10, 1099-1115) and aggressive metastatic disease (Harper et al 1998 J Pathol. 186, 169-177; Balbay et al 1999 Clin Cancer Res. 5, 783-789; Melnyk et al 1999 J Urol. 161, 960-963).

SMILES: CC(C)(c1ccc(OCC(O)CO)cc1)c1ccc(OCC(O)CCl)cc1 (centres unmarked) [185-9-2, BADGE.HCL.H2O]
- FSK-induced transactivation of the AR NTD ([1]; FSK 50 μM): to baseline levels; also recorded: blocked
- IL-6-induced transactivation of the AR NTD ([1]; IL-6 50 ng/ml): to baseline levels; also recorded: blocked
- AR interaction with the ARE on the PSA enhancer in response to androgen (ChIP) [2]: inhibited AR interaction with the ARE
- VEGF protein in LNCaP xenografts [3]: decreased levels of vascular endothelial growth factor (VEGF) protein
- VEGF protein in LNCaP xenografts ([3]; listed as PNG01-185-017-9-2): inhibited the expression of VEGF
